Activity calls are given as the source filed them. The rule behind the calls is not given here.
System: CCRIS mutagenicity, Ames/micronucleus/aberration tests
Assay: CCRIS mutagenicity studies
[1] = Test System: AMES SALMONELLA TYPHIMURIUM, Strain/Indicator: TA98, Metabolic Activation: NONE, Method: PREINCUBATION
[2] = Test System: AMES SALMONELLA TYPHIMURIUM, Strain/Indicator: TA100, Metabolic Activation: NONE, Method: PREINCUBATION
[3] = Test System: AMES SALMONELLA TYPHIMURIUM, Strain/Indicator: TA100, Metabolic Activation: NONE, Method: STANDARD PLATE
[4] = Test System: AMES SALMONELLA TYPHIMURIUM, Strain/Indicator: TA97, Metabolic Activation: NONE, Method: PREINCUBATION
[5] = Test System: AMES SALMONELLA TYPHIMURIUM, Strain/Indicator: TA100, Metabolic Activation: HAMSTER, LIVER, S-9, AROCLOR 1254 (10%), Method: PREINCUBATION
[6] = Test System: AMES SALMONELLA TYPHIMURIUM, Strain/Indicator: TA100, Metabolic Activation: HAMSTER, LIVER, S-9, AROCLOR 1254 (30%), Method: PREINCUBATION
[7] = Test System: AMES SALMONELLA TYPHIMURIUM, Strain/Indicator: TA1535, Metabolic Activation: HAMSTER, LIVER, S-9, AROCLOR 1254 (30%), Method: PREINCUBATION
[8] = Test System: AMES SALMONELLA TYPHIMURIUM, Strain/Indicator: TA1535, Metabolic Activation: NONE, Method: PREINCUBATION
[9] = Test System: AMES SALMONELLA TYPHIMURIUM, Strain/Indicator: TA98, Metabolic Activation: NONE, Method: STANDARD PLATE

`O=[N+]([O-])c1ccc(Cl)cc1Cl` was tested, and the mutagenic call (End Point: IN VITRO CHROMOSOMAL ABERRATIONS, Test System: CHL CELLS, Metabolic Activation: RAT, LIVER, S-9, SODIUM PHENOBARBITAL AND 5,6-BENZOFLAVONE) was “active; positive (structural changes); authors report equivocal results for ploidy chang”, the mutagenic call [1] was “inactive; negative” and the mutagenic call (Test System: AMES SALMONELLA TYPHIMURIUM, Strain/Indicator: TA98, Metabolic Activation: RAT, LIVER, S-9, KANECHLOR 500, Method: PREINCUBATION) was “inactive; negative”. For the same molecule, the mutagenic call [2] was “active; positive”, the mutagenic call [3] was “inactive; negative” and the mutagenic call (Test System: AMES SALMONELLA TYPHIMURIUM, Strain/Indicator: TA100, Metabolic Activation: RAT LIVER S-9, PHENOBARBITAL AND BETA-NAPHTHOFLAVONE, Method: PREINCUBATION) was “active; positive”. The mutagenic call (Test System: AMES SALMONELLA TYPHIMURIUM, Strain/Indicator: TA100, Metabolic Activation: RAT, LIVER, S-9, KANECHLOR 500, Method: PREINCUBATION) was “active; positive”, the mutagenic call (Test System: AMES SALMONELLA TYPHIMURIUM, Strain/Indicator: TA1535, Metabolic Activation: RAT LIVER S-9, PHENOBARBITAL AND BETA-NAPHTHOFLAVONE, Method: PREINCUBATION) was “inactive; negative” and the mutagenic call (Test System: AMES SALMONELLA TYPHIMURIUM, Strain/Indicator: TA1537, Metabolic Activation: RAT LIVER S-9, PHENOBARBITAL AND BETA-NAPHTHOFLAVONE, Method: PREINCUBATION) was “inactive; negative”. For the same molecule, the mutagenic call (Test System: E.COLI, Strain/Indicator: WP2UVRA, Metabolic Activation: NONE, Method: PREINCUBATION) was “inactive; negative” and the mutagenic call (Test System: E.COLI, Strain/Indicator: WP2UVRA, Metabolic Activation: RAT LIVER S-9, PHENOBARBITAL AND BETA-NAPHTHOFLAVONE, Method: PREINCUBATION) was “inactive; negative”.

With `Cc1cccc(Br)c1` the mutagenic call (Test System: AMES SALMONELLA TYPHIMURIUM, Strain/Indicator: TA97, Metabolic Activation: HAMSTER, LIVER, S-9, AROCLOR 1254 (10%), Method: PREINCUBATION) was “inactive; negative”, the mutagenic call (Test System: AMES SALMONELLA TYPHIMURIUM, Strain/Indicator: TA97, Metabolic Activation: HAMSTER, LIVER, S-9, AROCLOR 1254 (30%), Method: PREINCUBATION) was “inactive; negative” and the mutagenic call [4] was “inactive; negative”. The mutagenic call (Test System: AMES SALMONELLA TYPHIMURIUM, Strain/Indicator: TA97, Metabolic Activation: RAT, LIVER, S-9, AROCLOR 1254 (10%), Method: PREINCUBATION) was “inactive; negative”, the mutagenic call (Test System: AMES SALMONELLA TYPHIMURIUM, Strain/Indicator: TA97, Metabolic Activation: RAT, LIVER, S-9, AROCLOR 1254 (30%), Method: PREINCUBATION) was “inactive; negative” and the mutagenic call (Test System: AMES SALMONELLA TYPHIMURIUM, Strain/Indicator: TA98, Metabolic Activation: HAMSTER, LIVER, S-9, AROCLOR 1254 (10%), Method: PREINCUBATION) was “inactive; negative”. The mutagenic call (Test System: AMES SALMONELLA TYPHIMURIUM, Strain/Indicator: TA98, Metabolic Activation: HAMSTER, LIVER, S-9, AROCLOR 1254 (30%), Method: PREINCUBATION) was “inactive; negative”, the mutagenic call [1] was “inactive; negative” and the mutagenic call (Test System: AMES SALMONELLA TYPHIMURIUM, Strain/Indicator: TA98, Metabolic Activation: RAT, LIVER, S-9, AROCLOR 1254 (10%), Method: PREINCUBATION) was “inactive; negative”. The mutagenic call (Test System: AMES SALMONELLA TYPHIMURIUM, Strain/Indicator: TA98, Metabolic Activation: RAT, LIVER, S-9, AROCLOR 1254 (30%), Method: PREINCUBATION) was “inactive; negative”, the mutagenic call [5] was “inactive; negative” and the mutagenic call [6] was “inactive; negative”. For the same molecule, the mutagenic call [2] was “inactive; negative”, the mutagenic call (Test System: AMES SALMONELLA TYPHIMURIUM, Strain/Indicator: TA100, Metabolic Activation: RAT, LIVER, S-9, AROCLOR 1254 (10%), Method: PREINCUBATION) was “inactive; negative” and the mutagenic call (Test System: AMES SALMONELLA TYPHIMURIUM, Strain/Indicator: TA100, Metabolic Activation: RAT, LIVER, S-9, AROCLOR 1254 (30%), Method: PREINCUBATION) was “inactive; negative”. For the same molecule, the mutagenic call (Test System: AMES SALMONELLA TYPHIMURIUM, Strain/Indicator: TA1535, Metabolic Activation: HAMSTER, LIVER, S-9, AROCLOR 1254 (10%), Method: PREINCUBATION) was “inactive; negative”, the mutagenic call [7] was “inactive; negative” and the mutagenic call [8] was “inactive; negative”. The mutagenic call (Test System: AMES SALMONELLA TYPHIMURIUM, Strain/Indicator: TA1535, Metabolic Activation: RAT, LIVER, S-9, AROCLOR 1254 (10%), Method: PREINCUBATION) was “inactive; negative”, the mutagenic call (Test System: AMES SALMONELLA TYPHIMURIUM, Strain/Indicator: TA1535, Metabolic Activation: RAT, LIVER, S-9, AROCLOR 1254 (30%), Method: PREINCUBATION) was “inactive; negative” and the mutagenic call (Test System: AMES SALMONELLA TYPHIMURIUM, Strain/Indicator: TA1537, Metabolic Activation: HAMSTER, LIVER, S-9, AROCLOR 1254 (30%), Method: PREINCUBATION) was “inactive; negative”. For the same molecule, the mutagenic call (Test System: AMES SALMONELLA TYPHIMURIUM, Strain/Indicator: TA1537, Metabolic Activation: NONE, Method: PREINCUBATION) was “inactive; negative” and the mutagenic call (Test System: AMES SALMONELLA TYPHIMURIUM, Strain/Indicator: TA1537, Metabolic Activation: RAT, LIVER, S-9, AROCLOR 1254 (30%), Method: PREINCUBATION) was “inactive; negative”.

For `O=C(O)c1occ(-c2ccccc2)c1-c1ccccc1`, the mutagenic call [9] was “inactive; negative” and the mutagenic call [3] was “inactive; negative”.

In the case of `Cc1cc(=O)c2c(O)c3c(O)cc(O)c4c5c(O)cc(O)c6c(O)c7c(=O)cc(C)c8c1c2c(c34)c(c65)c78`, the mutagenic call [9] is reported as “inactive; negative”, the mutagenic call (Test System: AMES SALMONELLA TYPHIMURIUM, Strain/Indicator: TA98, Metabolic Activation: RAT, LIVER, S-9, AROCLOR 1254, Method: STANDARD PLATE) is reported as “inactive; negative” and the mutagenic call [3] is reported as “inactive; negative”. For the same molecule, the mutagenic call (Test System: AMES SALMONELLA TYPHIMURIUM, Strain/Indicator: TA100, Metabolic Activation: RAT, LIVER, S-9, AROCLOR 1254, Method: STANDARD PLATE) was “inactive; negative”.

In the case of `ClC1C(Br)C(Br)C(Br)C(Br)C1Br` (centres undefined), the mutagenic call (Test System: AMES SALMONELLA TYPHIMURIUM, Strain/Indicator: TA97, Metabolic Activation: HAMSTER, LIVER, S-9, AROCLOR 1254 (5, 10 OR 30%), Method: PREINCUBATION) is reported as “inactive; negative”, the mutagenic call [4] is reported as “inactive; negative” and the mutagenic call (Test System: AMES SALMONELLA TYPHIMURIUM, Strain/Indicator: TA97, Metabolic Activation: RAT, LIVER, S-9, AROCLOR 1254 (10 OR 30%), Method: PREINCUBATION) is reported as “inactive; negative”. For the same molecule, the mutagenic call (Test System: AMES SALMONELLA TYPHIMURIUM, Strain/Indicator: TA98, Metabolic Activation: HAMSTER, LIVER, S-9, AROCLOR 1254 (10 OR 30%), Method: PREINCUBATION) was “inactive; negative”, the mutagenic call [1] was “inactive; negative” and the mutagenic call (Test System: AMES SALMONELLA TYPHIMURIUM, Strain/Indicator: TA98, Metabolic Activation: RAT, LIVER, S-9, AROCLOR 1254 (10 OR 30%), Method: PREINCUBATION) was “inactive; negative”. The mutagenic call [5] was “inactive; negative”, the mutagenic call [6] was “inactive; negative” and the mutagenic call [2] was “inactive; negative”. For the same molecule, the mutagenic call (Test System: AMES SALMONELLA TYPHIMURIUM, Strain/Indicator: TA100, Metabolic Activation: RAT, LIVER, S-9, AROCLOR 1254 (10 OR 30%), Method: PREINCUBATION) was “inactive; negative”, the mutagenic call (Test System: AMES SALMONELLA TYPHIMURIUM, Strain/Indicator: TA1535, Metabolic Activation: HAMSTER, LIVER, S-9, AROCLOR 1254 (5 OR 10%), Method: PREINCUBATION) was “inactive; negative” and the mutagenic call [7] was “inactive; negative”. For the same molecule, the mutagenic call [8] was “inactive; negative” and the mutagenic call (Test System: AMES SALMONELLA TYPHIMURIUM, Strain/Indicator: TA1535, Metabolic Activation: RAT, LIVER, S-9, AROCLOR 1254 (10 OR 30%), Method: PREINCUBATION) was “inactive; negative”.

Source: PubChem BioAssay AID1259407 (Chemical Carcinogenesis Research Information System (CCRIS), 2018)
